Drawing on US10000484B2, “Inhibitors of the renal outer medullary potassim channel” (MERCK SHARP & DOHME CORP., priority 2013, dated 2018), this text covers IC50 for 6 compounds.

Structures are written as SMILES.

The assay addresses T1, ROMK (Kir1.1) (Homo sapiens, UniProt P48048).
T1 sequence (P48048 1-391): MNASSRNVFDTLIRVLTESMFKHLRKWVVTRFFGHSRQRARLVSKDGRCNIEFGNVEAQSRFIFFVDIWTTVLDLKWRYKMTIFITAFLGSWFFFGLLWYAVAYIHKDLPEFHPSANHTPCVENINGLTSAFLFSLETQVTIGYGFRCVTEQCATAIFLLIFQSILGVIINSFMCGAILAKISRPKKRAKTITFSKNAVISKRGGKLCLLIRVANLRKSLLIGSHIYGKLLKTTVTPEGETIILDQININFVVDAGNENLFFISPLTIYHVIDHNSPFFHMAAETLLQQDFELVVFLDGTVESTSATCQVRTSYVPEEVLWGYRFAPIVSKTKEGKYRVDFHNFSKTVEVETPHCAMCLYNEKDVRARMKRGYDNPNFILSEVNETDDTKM
Description: 86Rb+ Efflux Assay, described in WO2013/062892 at pages 79-80. Format: cell-based. To be noted: values marked "(Rb)" in Table 10. The text has this: The data for Examples 2, 3, 4, 8, 9, 10, 15 and 32 were obtained using the ^86Rb^+ Efflux Assay, described in WO2013/062892 at pages 79-80.
The IC50 is the concentration that gives 50% inhibition. On to `Cc1c(C(O)CN2CCc3nc(-c4ccc5c(c4)COC5=O)ncc3C2)ccc2c1COC2=O` (stereo not drawn) [Example 32, 5-{1-hydroxy-2-[2-(1-oxo-1,3-dihydro-2-benzofuran-5-yl)-7,8-dihydropyrido[4,3-d]pyrimidin-6(5H)-yl]ethyl}-4-methyl-2-benzofuran-1(3H)-one], for which inhibition was half-maximal at 69.9 nM (IC50).
Next, `Cc1c(CCN2CCc3c(cnn3-c3ccc4c(c3)COC4=O)C2)ccc2c1COC2=O` [Example 10, 4-methyl-5-{2-[1-(1-oxo-1,3-dihydro-2-benzofuran-5-yl)-1,4,6,7-tetrahydro-5H-pyrazolo[4,3-c]pyridin-5-yl]ethyl}-2-benzofuran-1(3H)-one]: 66 nM; `Cc1c(CCN2CCc3nc(-c4ccc5c(c4)COC5=O)ncc3C2)ccc2c1COC2=O` [Example 9, 4-methyl-5-{2-[2-(1-oxo-1,3-dihydro-2-benzofuran-5-yl)-7,8-dihydropyrido[4,3-d]pyrimidin-6(5H)-yl]ethyl}-2-benzofuran-1(3H)-one]: 96.1 nM; `N#Cc1ccc(-c2ncc3c(n2)CCN(CCc2ccc4c(c2)COC4=O)C3)cc1` [Example 2, 4-{6-[2-(1-oxo-1,3-dihydro-2-benzofuran-5-yl)ethyl]-5,6,7,8-tetrahydropyrido[4,3-d]pyrimidin-2-yl}benzonitrile]: 306 nM.
Next, `Cc1c(CCN2CCc3c(cnn3-c3ccc(-n4cnnn4)cc3)C2)ccc2c1COC2=O` [Example 8, 4-methyl-5-(2-{1-[4-(1H-tetrazol-1-yl)phenyl]-1,4,6,7-tetrahydro-5H-pyrazolo[4,3-c]pyridin-5-yl}ethyl)-2-benzofuran-1(3H)-one]: 380 nM; `Cc1c(CCN2CCc3nc(-c4ccc(C#N)cc4)ncc3C2)ccc2c1COC2=O` [Example 4, 4-{6-[2-(4-methyl-1-oxo-1,3-dihydro-2-benzofuran-5-yl)ethyl]-5,6,7,8-tetrahydropyrido[4,3-d]pyrimidin-2-yl}benzonitrile]: 304 nM.
